Holding throughout (assay type): functional
The target in assay [1] is Benomyl/methotrexate resistance protein (Candida albicans, UniProt P28873). Kind of assay: CaMdr1 efflux pump inhibitor potency, dose response, singleplex, Cherry Pick1 hits (AID 588608).
The target in assay [2] is Multidrug resistance protein CDR2 (Candida albicans (strain SC5314 / ATCC MYA-2876) (Yeast), UniProt P78595). The assay can be described thus: CaCDR2 efflux pump inhibitors in yeast, dose response, S. cerevisiae AD1-8u, singleplex, Cherry Pick1 hits (AID 588604).
For assay [3], the target named is Multidrug resistance protein CDR1 (Candida albicans, UniProt P43071). The assay can be described thus: CaCDR1 efflux pump inhibitors in yeast, dose response, S. cerevisiae AD1-8u, singleplex, Cherry Pick1 hits (AID 588606).
The target of assay [4] is Proto-oncogene tyrosine-protein kinase receptor Ret (Homo sapiens, UniProt P07949).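 Note: measured within a kinome-wide profiling panel, RET as the panel member.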
Assay [5] has as its target Cyclin-dependent kinase 5 (Homo sapiens, UniProt Q00535).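 Note: CDK5 measured as one member of a kinase profiling panel.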
In assay [6] the target is T1, Serine/threonine-protein kinase D3 (Homo sapiens, UniProt O94806).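 Note: determined within a kinase panel screen, with PRKCN as the panel member.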
T1 sequence (O94806 whole entry): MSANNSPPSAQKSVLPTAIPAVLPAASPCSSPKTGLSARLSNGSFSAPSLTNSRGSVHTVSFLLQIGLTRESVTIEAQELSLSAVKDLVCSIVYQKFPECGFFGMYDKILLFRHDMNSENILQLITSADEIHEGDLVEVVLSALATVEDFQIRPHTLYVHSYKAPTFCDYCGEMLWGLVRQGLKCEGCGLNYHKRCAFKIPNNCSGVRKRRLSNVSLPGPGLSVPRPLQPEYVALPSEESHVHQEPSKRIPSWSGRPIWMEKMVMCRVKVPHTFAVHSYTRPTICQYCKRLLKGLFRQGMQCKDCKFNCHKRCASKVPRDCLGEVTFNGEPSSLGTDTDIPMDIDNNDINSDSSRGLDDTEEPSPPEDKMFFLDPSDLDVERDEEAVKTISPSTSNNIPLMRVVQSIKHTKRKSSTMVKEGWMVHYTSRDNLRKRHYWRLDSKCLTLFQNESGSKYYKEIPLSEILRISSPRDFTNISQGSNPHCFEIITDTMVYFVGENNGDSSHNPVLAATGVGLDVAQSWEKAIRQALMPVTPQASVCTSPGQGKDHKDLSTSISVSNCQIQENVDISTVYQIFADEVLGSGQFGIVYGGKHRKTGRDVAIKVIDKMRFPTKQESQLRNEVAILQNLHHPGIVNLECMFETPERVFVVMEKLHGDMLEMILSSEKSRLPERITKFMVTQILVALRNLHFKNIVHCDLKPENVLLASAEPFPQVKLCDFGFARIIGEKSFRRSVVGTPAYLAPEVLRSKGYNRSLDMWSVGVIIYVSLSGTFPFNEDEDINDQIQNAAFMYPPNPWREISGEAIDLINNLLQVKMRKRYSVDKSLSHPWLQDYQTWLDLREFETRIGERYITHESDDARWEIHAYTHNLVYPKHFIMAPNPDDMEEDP

The target in assay [7] is Death-associated protein kinase 3 (Homo sapiens, UniProt O43293).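 Note: measured as one member of a kinome-wide profiling panel.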
Assay [8] has as its target T2, Serine/threonine-protein kinase Chk1 (Homo sapiens, UniProt O14757).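 Note: measured as one member of a kinome-wide kinase profiling panel.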
T2 sequence (O14757 whole entry): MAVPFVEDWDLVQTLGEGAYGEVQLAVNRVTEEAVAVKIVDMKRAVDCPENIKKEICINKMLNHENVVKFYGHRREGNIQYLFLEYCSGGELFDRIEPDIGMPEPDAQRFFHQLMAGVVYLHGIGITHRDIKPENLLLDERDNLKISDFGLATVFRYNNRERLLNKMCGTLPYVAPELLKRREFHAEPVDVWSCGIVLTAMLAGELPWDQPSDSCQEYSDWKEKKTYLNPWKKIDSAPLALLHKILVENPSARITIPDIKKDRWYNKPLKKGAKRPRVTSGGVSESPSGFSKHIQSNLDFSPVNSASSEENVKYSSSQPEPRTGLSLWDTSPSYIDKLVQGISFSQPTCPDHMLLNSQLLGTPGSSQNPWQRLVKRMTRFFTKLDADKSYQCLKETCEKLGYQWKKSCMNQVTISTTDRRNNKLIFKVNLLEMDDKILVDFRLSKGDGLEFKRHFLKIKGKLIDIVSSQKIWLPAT

Assay [9] has as its target Leukocyte tyrosine kinase receptor (Homo sapiens, UniProt P29376). The assay can be described thus: Navigating the Kinome. Panel member name: LTK.
The target in assay [10] is Macrophage colony-stimulating factor 1 receptor (Homo sapiens, UniProt P07333).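 Note: value comes from the Navigating the Kinome screening panel, CSF1R member.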
The target in assay [11] is T3, Tyrosine-protein kinase receptor TYRO3 (Homo sapiens, UniProt Q06418).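 Note: TYRO3 value obtained as one member of a kinome-wide profiling panel.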
T3 sequence (Q06418 whole entry): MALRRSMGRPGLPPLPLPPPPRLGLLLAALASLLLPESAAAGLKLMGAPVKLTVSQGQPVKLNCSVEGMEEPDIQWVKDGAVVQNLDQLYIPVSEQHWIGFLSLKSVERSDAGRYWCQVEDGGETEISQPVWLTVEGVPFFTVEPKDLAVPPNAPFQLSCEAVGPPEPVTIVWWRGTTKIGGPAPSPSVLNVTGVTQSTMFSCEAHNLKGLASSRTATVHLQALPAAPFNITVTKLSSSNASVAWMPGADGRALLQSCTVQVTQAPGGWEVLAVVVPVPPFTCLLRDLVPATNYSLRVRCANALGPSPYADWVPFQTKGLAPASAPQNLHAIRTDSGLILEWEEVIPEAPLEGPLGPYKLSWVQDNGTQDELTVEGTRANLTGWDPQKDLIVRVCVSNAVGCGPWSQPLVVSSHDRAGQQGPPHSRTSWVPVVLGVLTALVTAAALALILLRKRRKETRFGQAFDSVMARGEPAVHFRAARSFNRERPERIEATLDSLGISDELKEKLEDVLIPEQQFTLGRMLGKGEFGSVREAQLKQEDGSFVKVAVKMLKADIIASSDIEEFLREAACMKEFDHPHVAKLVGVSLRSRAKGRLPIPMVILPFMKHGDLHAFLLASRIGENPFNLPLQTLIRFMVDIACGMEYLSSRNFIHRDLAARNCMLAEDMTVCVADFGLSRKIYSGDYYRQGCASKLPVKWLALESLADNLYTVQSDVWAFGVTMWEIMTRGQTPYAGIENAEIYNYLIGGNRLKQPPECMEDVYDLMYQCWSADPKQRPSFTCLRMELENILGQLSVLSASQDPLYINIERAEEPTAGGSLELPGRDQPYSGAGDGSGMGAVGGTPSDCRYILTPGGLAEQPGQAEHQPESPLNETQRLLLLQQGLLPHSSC

Assay [12] has as its target Mitogen-activated protein kinase kinase kinase kinase 4 (Homo sapiens, UniProt O95819).
Assay [13] deals with LIM domain kinase 1 (Homo sapiens, UniProt P53667). Kind of assay: Navigating the Kinome. Panel member name: LIMK1.
Assay [14] addresses Dual specificity protein kinase CLK4 (Homo sapiens, UniProt Q9HAZ1).
The target of assay [15] is Serine/threonine-protein kinase TBK1 (Homo sapiens, UniProt Q9UHD2). Kind of assay: Navigating the Kinome. Panel member name: TBK1.
Assay [16] concerns the target Vascular endothelial growth factor receptor 1 (Homo sapiens, UniProt P17948).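 Note: measured within a kinome-wide profiling panel, FLT1 as the panel member.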
Assay [17] has as its target ALK tyrosine kinase receptor (Homo sapiens, UniProt Q9UM73).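 Note: ALK tested as one member of a kinase panel screen.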
The target in assay [18] is Aurora kinase B (Homo sapiens, UniProt Q96GD4).
The target of assay [19] is Vascular endothelial growth factor receptor 2 (Homo sapiens, UniProt P35968).
The target in assay [20] is Casein kinase I isoform alpha (Homo sapiens, UniProt P48729).
In assay [21] the target is Leucine-rich repeat serine/threonine-protein kinase 2 (Homo sapiens, UniProt Q5S007).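 Note: value from a broad kinome-wide panel profiling study in which LRRK2 was one of the kinases tested.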
Assay [22] has as its target Ribosomal protein S6 kinase alpha-3 (Homo sapiens, UniProt P51812).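 Note: measured within a kinome-wide profiling panel.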
Assay [23] addresses Fibroblast growth factor receptor 1 (Homo sapiens, UniProt P11362).
The target in assay [24] is Cyclin-dependent kinase 7 (Homo sapiens, UniProt P50613).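 Note: value comes from a kinome-wide kinase profiling panel in which CDK7 is one member.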
Assay [25] addresses Cyclin-dependent kinase 8 (Homo sapiens, UniProt P49336). The assay can be described thus: Navigating the Kinome. Panel member name: CDK8.
Assay [26] deals with Dual specificity tyrosine-phosphorylation-regulated kinase 1B (Homo sapiens, UniProt Q9Y463). Kind of assay: Navigating the Kinome. Panel member name: DYRK1B.
The target of assay [27] is Melanin-concentrating hormone receptor 1 (Homo sapiens, UniProt Q99705). The assay can be described thus: Late-stage fluorescence-based counterscreen for antagonists of the G-protein coupled receptor 7 (GPR7): cell-based dose response assay to identify antagonists of the melanin-concentrating hormone receptor 1 (MCHR1) Set 5.
The target in assay [28] is Neuropeptides B/W receptor type 1 (Homo sapiens, UniProt P48145). Kind of assay: GPR7 antagonist potency, late-stage follow-up, cell-based, fluorescence, dose response, set 5 (AID 588566).

Active and inactive are the calls of the source.

Sequence of Multidrug resistance protein CDR2 (P78595 whole entry): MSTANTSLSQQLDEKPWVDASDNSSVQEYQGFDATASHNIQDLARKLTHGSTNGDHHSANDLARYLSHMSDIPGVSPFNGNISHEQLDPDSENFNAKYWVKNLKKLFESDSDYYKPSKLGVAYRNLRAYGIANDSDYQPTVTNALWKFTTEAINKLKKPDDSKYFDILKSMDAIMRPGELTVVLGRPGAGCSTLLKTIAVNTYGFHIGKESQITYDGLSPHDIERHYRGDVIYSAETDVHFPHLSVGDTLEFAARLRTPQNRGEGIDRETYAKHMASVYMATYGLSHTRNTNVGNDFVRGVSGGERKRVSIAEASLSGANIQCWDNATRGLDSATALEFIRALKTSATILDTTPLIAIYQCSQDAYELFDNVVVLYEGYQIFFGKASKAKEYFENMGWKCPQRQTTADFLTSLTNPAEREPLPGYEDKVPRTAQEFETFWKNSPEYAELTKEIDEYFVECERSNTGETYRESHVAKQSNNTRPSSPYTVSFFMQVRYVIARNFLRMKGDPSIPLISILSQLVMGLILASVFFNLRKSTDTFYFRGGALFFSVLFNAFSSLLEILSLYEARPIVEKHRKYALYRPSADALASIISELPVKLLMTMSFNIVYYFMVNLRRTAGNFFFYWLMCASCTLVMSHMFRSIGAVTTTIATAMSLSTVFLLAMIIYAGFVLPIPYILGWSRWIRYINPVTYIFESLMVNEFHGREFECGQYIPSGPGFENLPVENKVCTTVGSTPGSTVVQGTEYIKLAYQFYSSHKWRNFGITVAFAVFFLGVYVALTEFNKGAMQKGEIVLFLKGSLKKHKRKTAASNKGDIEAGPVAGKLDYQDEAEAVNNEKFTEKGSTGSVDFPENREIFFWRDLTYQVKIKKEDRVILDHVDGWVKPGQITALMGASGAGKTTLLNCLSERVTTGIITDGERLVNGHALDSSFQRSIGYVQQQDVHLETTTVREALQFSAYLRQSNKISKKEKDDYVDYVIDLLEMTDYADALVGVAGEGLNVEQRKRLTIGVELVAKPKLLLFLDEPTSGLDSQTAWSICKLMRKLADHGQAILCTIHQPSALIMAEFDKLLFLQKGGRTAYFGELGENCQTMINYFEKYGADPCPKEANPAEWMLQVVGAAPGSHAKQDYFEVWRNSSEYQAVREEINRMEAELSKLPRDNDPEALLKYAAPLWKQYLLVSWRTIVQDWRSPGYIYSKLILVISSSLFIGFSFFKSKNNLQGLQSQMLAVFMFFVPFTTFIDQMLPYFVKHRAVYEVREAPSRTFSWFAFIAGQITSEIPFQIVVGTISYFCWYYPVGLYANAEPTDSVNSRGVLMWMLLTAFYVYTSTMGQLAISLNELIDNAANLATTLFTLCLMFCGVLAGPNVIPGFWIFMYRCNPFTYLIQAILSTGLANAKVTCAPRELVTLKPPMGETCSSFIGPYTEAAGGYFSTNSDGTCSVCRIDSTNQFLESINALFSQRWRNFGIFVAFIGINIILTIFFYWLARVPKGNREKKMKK
Sequence of Cyclin-dependent kinase 7 (P50613 whole entry): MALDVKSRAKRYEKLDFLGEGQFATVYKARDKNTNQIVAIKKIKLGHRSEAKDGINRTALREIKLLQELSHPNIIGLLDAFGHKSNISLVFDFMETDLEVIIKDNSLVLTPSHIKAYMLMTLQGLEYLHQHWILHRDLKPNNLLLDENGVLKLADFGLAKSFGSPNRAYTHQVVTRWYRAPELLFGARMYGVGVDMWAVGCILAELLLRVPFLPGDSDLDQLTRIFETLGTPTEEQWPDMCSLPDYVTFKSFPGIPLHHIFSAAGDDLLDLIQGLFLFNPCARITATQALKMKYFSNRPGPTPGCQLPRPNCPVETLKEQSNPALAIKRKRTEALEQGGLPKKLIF
Sequence of Benomyl/methotrexate resistance protein (P28873 whole entry): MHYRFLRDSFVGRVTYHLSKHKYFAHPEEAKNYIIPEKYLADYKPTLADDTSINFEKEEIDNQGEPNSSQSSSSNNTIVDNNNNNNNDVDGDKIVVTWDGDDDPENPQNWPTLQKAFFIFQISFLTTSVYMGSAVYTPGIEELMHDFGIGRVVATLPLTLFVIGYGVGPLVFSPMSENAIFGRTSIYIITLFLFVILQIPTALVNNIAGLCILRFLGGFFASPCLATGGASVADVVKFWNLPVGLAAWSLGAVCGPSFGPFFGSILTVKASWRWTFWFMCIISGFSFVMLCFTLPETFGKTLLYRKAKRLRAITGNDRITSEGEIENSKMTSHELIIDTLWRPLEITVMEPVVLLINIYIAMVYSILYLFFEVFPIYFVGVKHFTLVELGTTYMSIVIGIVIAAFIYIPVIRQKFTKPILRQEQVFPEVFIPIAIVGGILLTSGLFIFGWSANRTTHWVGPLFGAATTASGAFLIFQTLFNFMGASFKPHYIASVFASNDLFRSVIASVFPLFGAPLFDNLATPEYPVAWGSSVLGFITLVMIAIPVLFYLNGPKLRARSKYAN
Sequence of Leukocyte tyrosine kinase receptor (P29376 whole entry): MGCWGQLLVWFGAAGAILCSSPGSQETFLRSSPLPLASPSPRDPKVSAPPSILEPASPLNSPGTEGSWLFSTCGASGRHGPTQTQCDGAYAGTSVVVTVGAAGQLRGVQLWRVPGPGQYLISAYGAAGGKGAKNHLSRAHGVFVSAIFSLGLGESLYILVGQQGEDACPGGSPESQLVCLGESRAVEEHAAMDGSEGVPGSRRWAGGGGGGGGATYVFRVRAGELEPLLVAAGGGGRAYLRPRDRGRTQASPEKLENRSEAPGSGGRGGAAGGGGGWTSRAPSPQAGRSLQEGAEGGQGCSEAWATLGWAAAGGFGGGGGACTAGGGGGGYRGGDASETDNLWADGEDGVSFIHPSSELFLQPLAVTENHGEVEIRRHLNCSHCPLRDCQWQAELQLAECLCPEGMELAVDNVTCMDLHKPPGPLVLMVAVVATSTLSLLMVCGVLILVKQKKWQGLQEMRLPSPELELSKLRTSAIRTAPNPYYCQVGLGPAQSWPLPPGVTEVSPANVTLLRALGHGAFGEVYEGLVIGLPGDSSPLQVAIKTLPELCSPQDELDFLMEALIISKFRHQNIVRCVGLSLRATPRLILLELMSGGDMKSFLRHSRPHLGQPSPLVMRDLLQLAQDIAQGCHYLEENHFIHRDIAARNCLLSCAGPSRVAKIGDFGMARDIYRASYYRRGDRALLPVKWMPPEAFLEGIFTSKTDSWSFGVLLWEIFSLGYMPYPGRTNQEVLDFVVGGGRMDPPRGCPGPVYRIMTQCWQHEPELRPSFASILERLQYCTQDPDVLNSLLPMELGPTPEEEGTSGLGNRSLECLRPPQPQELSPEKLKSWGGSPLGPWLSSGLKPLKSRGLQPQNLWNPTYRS
Sequence of Cyclin-dependent kinase 5 (Q00535 whole entry): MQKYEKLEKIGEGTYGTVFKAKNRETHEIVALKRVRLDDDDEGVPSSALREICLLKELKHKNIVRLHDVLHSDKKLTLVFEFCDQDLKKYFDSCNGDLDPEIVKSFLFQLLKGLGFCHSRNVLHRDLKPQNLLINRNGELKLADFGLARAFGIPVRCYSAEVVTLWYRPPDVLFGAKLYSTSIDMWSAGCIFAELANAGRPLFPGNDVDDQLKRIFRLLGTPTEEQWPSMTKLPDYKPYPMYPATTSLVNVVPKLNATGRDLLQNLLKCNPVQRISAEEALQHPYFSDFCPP
Sequence of Aurora kinase B (Q96GD4 whole entry): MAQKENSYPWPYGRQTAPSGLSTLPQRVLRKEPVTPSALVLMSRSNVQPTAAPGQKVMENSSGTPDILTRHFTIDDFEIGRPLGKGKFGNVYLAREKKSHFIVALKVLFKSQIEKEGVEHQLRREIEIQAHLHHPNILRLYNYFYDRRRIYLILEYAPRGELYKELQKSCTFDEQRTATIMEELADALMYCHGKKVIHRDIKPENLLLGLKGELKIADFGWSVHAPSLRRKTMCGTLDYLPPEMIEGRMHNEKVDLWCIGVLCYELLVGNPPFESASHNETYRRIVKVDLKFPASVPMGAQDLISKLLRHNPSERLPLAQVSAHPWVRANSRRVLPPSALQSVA
Sequence of Macrophage colony-stimulating factor 1 receptor (P07333 whole entry): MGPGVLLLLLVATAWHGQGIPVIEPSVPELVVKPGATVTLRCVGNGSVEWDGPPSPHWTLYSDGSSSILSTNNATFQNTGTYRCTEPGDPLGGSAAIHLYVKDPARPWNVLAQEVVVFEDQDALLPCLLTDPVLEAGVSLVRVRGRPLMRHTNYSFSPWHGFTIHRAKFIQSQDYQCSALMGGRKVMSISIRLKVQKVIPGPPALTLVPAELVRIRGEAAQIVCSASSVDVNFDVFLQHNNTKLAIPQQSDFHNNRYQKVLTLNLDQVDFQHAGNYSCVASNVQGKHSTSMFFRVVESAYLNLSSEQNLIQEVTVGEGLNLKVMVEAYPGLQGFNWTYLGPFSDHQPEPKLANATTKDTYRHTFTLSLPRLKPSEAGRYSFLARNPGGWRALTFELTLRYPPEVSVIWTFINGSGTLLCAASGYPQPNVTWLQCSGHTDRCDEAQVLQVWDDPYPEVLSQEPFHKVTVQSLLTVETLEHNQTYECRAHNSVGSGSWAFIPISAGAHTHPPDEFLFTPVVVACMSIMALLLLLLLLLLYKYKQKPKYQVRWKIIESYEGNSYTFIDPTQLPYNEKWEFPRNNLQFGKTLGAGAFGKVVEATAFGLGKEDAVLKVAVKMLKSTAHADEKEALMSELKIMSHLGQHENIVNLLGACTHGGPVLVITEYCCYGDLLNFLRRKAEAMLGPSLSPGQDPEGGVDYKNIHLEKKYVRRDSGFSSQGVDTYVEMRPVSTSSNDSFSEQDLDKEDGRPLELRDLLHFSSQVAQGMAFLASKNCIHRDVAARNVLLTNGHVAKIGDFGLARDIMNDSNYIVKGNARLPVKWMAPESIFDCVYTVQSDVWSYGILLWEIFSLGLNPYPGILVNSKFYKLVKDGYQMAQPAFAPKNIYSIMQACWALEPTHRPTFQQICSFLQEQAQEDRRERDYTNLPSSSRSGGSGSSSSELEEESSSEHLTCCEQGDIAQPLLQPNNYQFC

With `COc1cc(OC)cc(-c2sc3ccc(OC)cc3c2-c2ccc(OCCN3CCOCC3)cc2)c1`, the half-maximal effective concentration (EC50) is 13.7 µM (active) in [1], 38.5 µM (active) in assay [2] and 11.3 µM (active) in assay [3].

Consider `Nc1ncnc2c1C(=O)NCCN2`, for which the inhibitory constant (Ki) in [4] was 31.6 µM (active); in assay [5], 50.1 µM (active); in assay [6] it was 100 µM (active); in assay [7] it was 15.8 µM (active); in assay [8] it was 25.1 µM (active); in assay [9], 39.8 µM (active). Besides, the inhibition constant (Ki) in [10] was 79.4 µM (active); in assay [11] it was 63.1 µM (active); in assay [12], 31.6 µM (active); in [13], 20 µM (active); in [14], 25.1 µM (active); in assay [15], 50.1 µM (active). Moreover, the Ki in assay [16] was 25.1 µM (active); in assay [17], 63.1 µM (active); in assay [18], 31.6 µM (active); in assay [19], 12.6 µM (active); in [20] it was 20 µM (active); in assay [21], 31.6 µM (active). The inhibitory constant (Ki) in assay [22] is 79.4 µM (active); in [23], 100 µM (active); in assay [24], 63.1 µM (active); in [25], 100 µM (active); in assay [26], 39.8 µM (active).

In the case of `O=c1c(Cl)c(Oc2ccc3c(c2)OCO3)cnn1Cc1cccc2ccccc12`, the IC50 is 17.8 µM (inactive) in assay [27] and 3.3 µM (active) in [28].

One may read the EC50 as the midpoint of the concentration-response curve. By Ki is commonly meant the equilibrium dissociation constant of an inhibitor or competing ligand from its target. A word on the IC50: it is the concentration that gives 50% inhibition.
